From BindingDB's records for doi:10.1021/jm950807f (University of Minnesota, 1996)
pKi: −log10 of the molar value.

Assay: Binding affinity against Delta Opioid receptor in Guinea pig brain membranes

N[C@@]1(C2=N[C@]3(CC[C@@]4(O)[C@H]5Cc6ccc(O)c7c6C4(CCN5CC4CC4)[C@H]3O7)C(=O)N2)CC[C@@]2(O)[C@H]3Cc4ccc(O)c5c4C2(CCN3CC2CC2)[C@H]1O5 [(4S,5'R,13'R,17'S)-2-[(5R,13R,14R,17S)-14-amino-4-(cyclopropylmethyl)-10,17-dihydroxy-12-oxa-4-azapentacyclo[9.6.1.0^{1,13}.0^{5,17}.0^{7,18}]octadeca-7(18),8,10-trien-14-yl]-4'-(cyclopropylmethyl)-10',17'-dihydroxy-3,5-dihydro-12'-oxa-4'-azaspiro[imidazole-4,14'-pentacyclo[9.6.1.0^{1,13}.0^{5,17}.0^{7,18}]octadecane]-7',9',11'(18')-trien-5-one]
pKi: 8.91

NC1=NC([C@]2(N)CC[C@@]3(O)[C@H]4Cc5ccc(O)c6c5C3(CCN4CC3CC3)[C@H]2O6)=N[C@]12CC[C@@]1(O)[C@H]3Cc4ccc(O)c5c4C1(CCN3CC1CC1)[C@H]2O5 [5-amino-2,4(Bis-4-cyclopropylmethyl-10,17-dihydroxy-(1S,5R,13R,17S)-12-oxa-4-azapentacyclo[9.6.1.01,13.05,17.07,18]octadeca-7(18),8,10-trien-14-one) imidazole]
pKi: 6.74
